From patent publication US7345035B2, “Treatment of osteoporosis and autoimmune disease with astrogorgiadiol” (University of Delaware, priority 2003, dated 2008)

Legend:
osteopontin mRNA = assay: Northern blot of osteopontin mRNA in ROS 17/2.8 cells; assay type: cell-based
Description: Changes in levels of mRNA encoding osteopontin induced by astrogorgiadiol were studied by Northern blot. Northern blot analysis was performed as described in Farach-Carson American Journal of Physiology 265: F705-F711 (1993), modified to include varying concentrations of astrogorgiadiol.
Briefly, […] cells were treated with 1 nM 1, 25 (OH)2vitD3 (BIOMOL Research Laboratories Inc., Plymouth Meeting, Pa.) or 1 nM 1, 25 (OH)2 vitD3 and 3 nM, 30 nM or 300 nM astrogorgiadiol for 0, 3 or 24 hours prior to harvest or with 3 nM, 30 nM or 300 nM astrogorgiadiol. mRNA was extracted using standard techniques. Osteopontin mRNA was detected using a ^32P-labeled osteopontin cDNA probe.

starfish eggs = settings: cited from earlier work

Structure (SMILES) | osteopontin mRNA level (Northern blot) (osteopontin mRNA; ROS 17/2.8 cells, 1 nM 1,25 (OH)2 vitD3, 0, 3 or 24 hours prior to harvest) | 1,25 (OH)2 vitD3-induced osteopontin mRNA level (Northern blot) (osteopontin mRNA; 3 nM astrogorgiadiol with 1 nM 1,25 (OH)2 vitD3, ROS 17/2.8 cells) | osteopontin mRNA level (Northern blot) (osteopontin mRNA; 30 nM astrogorgiadiol with 1 nM 1,25 (OH)2 vitD3, ROS 17/2.8 cells) | osteopontin mRNA level (Northern blot) (osteopontin mRNA; 300 nM astrogorgiadiol with 1 nM 1,25 (OH)2 vitD3, ROS 17/2.8 cells) | osteopontin mRNA level (Northern blot), dose dependence (osteopontin mRNA; ROS 17/2.8 cells, 3 nM, 30 nM or 300 nM astrogorgiadiol, with 1 nM 1,25 (OH)2 vitD3) | concentration effective to downregulate osteopontin RNA production (osteopontin mRNA; in cells in vitro) | cell division of starfish eggs (starfish eggs)
C=C1/C(=C\C=C2/CCC[C@]3(C)[C@@H]([C@H](C)CCCC(C)(C)O)CC[C@@H]23)C[C@@H](O)C[C@@H]1O [1,25 (OH)2 vitD3, reference compound] | increased osteopontin mRNA |  |  |  |  |  | 
Cc1ccc(O)cc1CC[C@@H]1[C@H](O)CC[C@]2(C)[C@@H]([C@H](C)CCCC(C)C)CC[C@@H]12 [astrogorgiadiol, Astrogorgiadiol] |  | decreased 1,25 (OH)2 vitD3-induced osteopontin mRNA to levels approaching control levels | decreased the level of osteopontin mRNA below control levels | decreased the level of osteopontin mRNA below control levels | downregulated osteopontin mRNA in a dose-dependent manner | 3 to 300 nM | inhibit cell division of starfish eggs
